Experiments:
[1] = target: T1, Bifunctional epoxide hydrolase 2 (Homo sapiens) (UniProt P34913); experiment: Inhibition of human recombinant soluble epoxide hydrolase using (3-phenyl-oxiranyl)-acetic acid cyano-(6-methoxy-naphtalen-2-yl)-methyl ester as substrate at 100 uM incubated for 15 mins prior to substrate addition by fluorescence assay
T1 sequence (whole entry): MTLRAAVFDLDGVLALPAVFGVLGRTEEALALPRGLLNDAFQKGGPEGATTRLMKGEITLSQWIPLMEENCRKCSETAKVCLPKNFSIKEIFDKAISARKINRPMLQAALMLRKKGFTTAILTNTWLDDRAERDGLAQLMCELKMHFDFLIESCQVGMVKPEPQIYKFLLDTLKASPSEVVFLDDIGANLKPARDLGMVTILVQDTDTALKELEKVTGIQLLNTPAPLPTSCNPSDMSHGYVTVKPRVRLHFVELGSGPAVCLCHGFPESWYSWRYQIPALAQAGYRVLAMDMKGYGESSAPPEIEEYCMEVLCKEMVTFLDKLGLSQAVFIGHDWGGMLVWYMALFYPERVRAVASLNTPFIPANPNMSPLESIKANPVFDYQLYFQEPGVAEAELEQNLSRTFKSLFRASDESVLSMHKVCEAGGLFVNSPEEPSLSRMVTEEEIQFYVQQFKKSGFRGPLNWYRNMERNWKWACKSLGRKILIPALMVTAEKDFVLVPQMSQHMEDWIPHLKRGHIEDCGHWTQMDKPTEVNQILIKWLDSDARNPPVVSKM

[2] = target: T2, Bifunctional epoxide hydrolase 2 (Homo sapiens, UniProt P34913); experiment: Inhibition of human recombinant soluble epoxide hydrolase using (3-phenyl-oxiranyl)-acetic acid cyano-(6-methoxy-naphtalen-2-yl)-methyl ester as substrate incubated for 15 mins prior to substrate addition by fluorescence assay
T2 sequence (P34913 whole entry): T1 sequence (whole entry)

Row | SMILES | inhibition [1] | IC50 [2]
1 | Cc1cc(C2CCN(C(=O)NCc3ccccc3)CC2)n(-c2ccc(S(C)(=O)=O)cc2)n1 | 94.2% | –
2 | Cc1cc(C2CCN(C(=O)NCc3ccccc3)CC2)n(-c2ccc(S(N)(=O)=O)cc2)n1 | 69.2% | –
3 | COc1ccc(C(=O)N2CCC(c3cc(C)nn3-c3ccc(S(N)(=O)=O)cc3)CC2)cc1 | 32.9% | –
4 | COc1ccc(C(=O)N2CCC(c3cc(C)nn3-c3ccc(S(C)(=O)=O)cc3)CC2)cc1 | 15.2% | –
5 | Cc1cc(C2CCN(C(=O)NCCc3ccccc3)CC2)n(-c2ccc(S(C)(=O)=O)cc2)n1 | 54% | –
6 | Cc1cc(C2CCN(C(=O)Nc3ccc(Cl)cc3)CC2)n(-c2ccc(S(C)(=O)=O)cc2)n1 | 54% | –
7 | Cc1cc(C2CCN(C(=O)NC(C)C)CC2)n(-c2ccc(S(C)(=O)=O)cc2)n1 | 45.4% | 13.6 µM
8 | Cc1cc(C2CCN(C(=O)Nc3ccccc3Cl)CC2)n(-c2ccc(S(N)(=O)=O)cc2)n1 | 54% | –
9 | Cc1cc(C2CCN(C(=O)Nc3ccccc3Cl)CC2)n(-c2ccc(S(C)(=O)=O)cc2)n1 | 54% | –
10 | CCCC(=O)N1CCC(c2cc(C)nn2-c2ccc(S(N)(=O)=O)cc2)CC1 | 68.7% | –
11 | Cc1cc(C2CCN(C(=O)c3ccc(Cl)cc3)CC2)n(-c2ccc(S(C)(=O)=O)cc2)n1 | 54% | –
12 | CCNC(=O)N1CCC(c2cc(C)nn2-c2ccc(S(N)(=O)=O)cc2)CC1 | 23.3% | –
13 | Cc1ccc(NC(=O)N2CCC(c3cc(C)nn3-c3ccc(S(C)(=O)=O)cc3)CC2)cc1 | 54% | –
14 | CCCNC(=O)N1CCC(c2cc(C)nn2-c2ccc(S(C)(=O)=O)cc2)CC1 | 54% | –
15 | CCCC(=O)N1CCC(c2cc(C)nn2-c2ccc(S(C)(=O)=O)cc2)CC1 | 54% | –
16 | Cc1cc(C2CCN(C(=O)NC(C)C)CC2)n(-c2ccc(S(N)(=O)=O)cc2)n1 | 105% | 22.3 µM
17 | Cc1ccc(C(=O)N2CCC(c3cc(C)nn3-c3ccc(S(N)(=O)=O)cc3)CC2)cc1 | 0% | –

Row | SMILES | inhibition [1] | IC50 [2]
18 | CCc1ccccc1NC(=O)N1CCC(c2cc(C)nn2-c2ccc(S(C)(=O)=O)cc2)CC1 | 54% | –
19 | CCCCNC(=O)N1CCC(c2cc(C)nn2-c2ccc(S(N)(=O)=O)cc2)CC1 | 82% | 10.1 µM
20 | CCCCNC(=O)N1CCC(c2cc(C)nn2-c2ccc(S(C)(=O)=O)cc2)CC1 | 99.5% | 0.269 µM
21 | Cc1cc(C2CCN(C(=O)c3ccccc3)CC2)n(-c2ccc(S(N)(=O)=O)cc2)n1 | 57.2% | –
22 | Cc1cc(C2CCN(C(=O)Nc3ccccc3)CC2)n(-c2ccc(S(N)(=O)=O)cc2)n1 | 92.7% | 16.7 µM
23 | Cc1ccc(C(=O)N2CCC(c3cc(C)nn3-c3ccc(S(C)(=O)=O)cc3)CC2)cc1 | 42.1% | –
24 | Cc1cc(C2CCN(C(=O)c3ccc(Cl)cc3)CC2)n(-c2ccc(S(N)(=O)=O)cc2)n1 | 32.5% | –
25 | Cc1cc(C2CCN(C(=O)NC3CCCCC3)CC2)n(-c2ccc(S(N)(=O)=O)cc2)n1 | 99% | 0.275 µM
26 | Cc1ccc(NC(=O)N2CCC(c3cc(C)nn3-c3ccc(S(N)(=O)=O)cc3)CC2)cc1 | 105% | 0.224 µM
27 | Cc1cc(C2CCN(C(=O)Nc3ccccc3)CC2)n(-c2ccc(S(C)(=O)=O)cc2)n1 | 89.9% | 0.22 µM
28 | Cc1cc(C2CCN(C(=O)c3ccccc3)CC2)n(-c2ccc(S(C)(=O)=O)cc2)n1 | 54% | –
29 | Cc1cc(C2CCN(C(=O)c3ccc([N+](=O)[O-])cc3)CC2)n(-c2ccc(S(C)(=O)=O)cc2)n1 | 54% | –
30 | CCNC(=O)N1CCC(c2cc(C)nn2-c2ccc(S(C)(=O)=O)cc2)CC1 | 54% | –
31 | Cc1cc(C2CCN(C(=O)c3ccc([N+](=O)[O-])cc3)CC2)n(-c2ccc(S(N)(=O)=O)cc2)n1 | 0% | –
32 | Cc1cc(C2CCN(C(=O)NC3CCCCC3)CC2)n(-c2ccc(S(C)(=O)=O)cc2)n1 | 114% | 3.47 µM
33 | CCCNC(=O)N1CCC(c2cc(C)nn2-c2ccc(S(N)(=O)=O)cc2)CC1 | 68.6% | –

Reference: ChEMBL document CHEMBL2424549, “Design, synthesis and biological evaluation of 4-(1-(4(sulphanilamide)phenyl)-3-(methyl)-1H-pyrazol-5-yl)dine urea and N-acyl derivatives as a soluble epoxide hydrolase inhibitors” (Med Chem Res, 2013)
